Where “and” joins values, the source holds several entries; their conditions need not be identical. Identical values can stand only once. Like-named read-outs stand apart in the source and are kept apart here. Marks after values point to notes of the source that are not given here.
Experiments:
[1] = test system: IL-22; assay: IL-22 levels by ELISA in stimulated human peripheral blood mononuclear cells; format: cell-based; settings: for IC50: Homo sapiens, PBMC
Protocol: (§1) CD2, CD3, and CD28 antibody-coated beads from the T-cell activation/expansion kit (Miltenyi Biotec) were added to the PBMC at a bead-to-cell ratio of 1:2.
(§2) The mixture of PBMCs and beads were seeded into the wells of the round-bottom 96-well plate at a concentration of 2×10^5 cells/well in a total volume of 200 μL. The cells were cultured for 72 hours at 37° C. and 5% CO2 and then supernatants were collected and IL-17A and IL-22 levels were measured by ELISA. […] The final compound concentration ranged from 30,000 nM to 0.005 nM and the final DMSO concentration per well was 0.3%. PBMCs were seeded at approximately 2×10^5 cells/well in the wells of the 96-well tissue culture plate in a total volume of 190 μL. The plate was incubated for 1 hour at 37° C. and 5% CO2. […] The cells were then cultured for 24 hours at 37° C. and 5% CO2. The supernatant was collected and CXCL10 levels were measured by ELISA.

[2] = test system: collagen-induced arthritis; settings: rat, in vivo
[3] = test system: IL-17A; assay: IL-17A levels by ELISA in stimulated human peripheral blood mononuclear cells; format: cell-based; settings: for IC50: Homo sapiens, PBMC
Protocol: as §1, §2

[4] = test system: rat anti-collagen IgG1 antibodies; assay: Rat anti-collagen IgG1 antibodies in serum of CIA rats at day 21; format: in vivo, Lewis rat; settings: for Average rat anti-collagen IgG1 levels, Mean: day 21, group mean; for Final Rat Anti-Collagen IgG1 Antibody Con. / Rat Anti-Collagen IgG1 Antibody Con.: day 21, per animal; for Rat Anti-Collagen IgG1 Antibody Con.: before multiplying by Fold 1000; for levels of rat anti-collagen IgG1 antibodies relative to CIA induced, no treatment: day 21
Protocol: Blood was additionally collected from groups 1-7 via cardiac puncture following euthanasia on Day 21. […] Serum was divided into two separate tubes and stored at −75±15° C. One tube was used to analyze IgG1, and the other tube was reserved for additional analyses.

[5] = Pharmacokinetics and plasma concentration of Example 101 in Lewis rats after oral administration (CIA study); format: in vivo, Lewis rat
[6] = Lewis rats, oral, 10 mg/kg, day 20, mean
[7] = Lewis, rat, plasma, oral, 10 mg/kg, oral, day 0, 10 mg/kg, per test subject, read-out: Plasma concentration
[8] = Lewis, rat, plasma, oral, 10 mg/kg, oral, day 20, 10 mg/kg, per test subject, read-out: Plasma concentration
[9] = Lewis, rat, plasma, oral, 10 mg/kg, plasma, oral, day 0, 10 mg/kg, read-out: Mean Concentration

CNC(=O)c1[nH]c(C(=O)NC2CCC2)cc1O[C@@H](C)c1ccccc1 (stereo in doubt) [Example 101, N^5-cyclobutyl-N^2-methyl-3-(1-phenylethoxy)-1H-pyrrole-2,5-dicarboxamide]
IC50 ([1]; Test Subject 1, read-out: IL-22 IC50): 14.8 nM | IC50 ([1]; Test Subject 2, read-out: IL-22 IC50): 26.9 nM | IC50 ([1]; Test Subject 3, read-out: IL-22 IC50): 21.1 nM | IC50 ([1]; mean of test subjects, read-out: IL-22 IC50 Mean): 20.9 nM | IC50 for IL-22 relative to GSK620 ([1]; human PBMC, 72 hours): substantially lower IC50 | Biomarker selectivity (IL-22 vs. CXCL10) ([1]; human PBMC, from mean IC50): >1433 Fold | Clinical Observation ([2]; 10 mg/kg): Diarrhea | Clinical Observation ([2]; 30 mg/kg): Diarrhea | animals that gained weight by the end of the study ([2]; po, 3 mg/kg): 7/8 | body weight over the course of the study ([2]; po, 3 mg/kg): weight gain over the first 13 days of the study, similar to animals in groups 2 and 4, followed by weight loss over the remaining days | diarrhea over the 21-day period ([2]; po, 3 mg/kg): did not have diarrhea | increase in body weight, day 21 compared to day 0 ([2]; po, 3 mg/kg): 1.7% | animals that either gained no weight or lost weight ([2]; po, 10 mg/kg): 5/8 | animals that gained weight by the end of the study ([2]; po, 10 mg/kg): 3/8 | animals that had diarrhea (for a single day) over the 21-day period ([2]; po, 10 mg/kg): Two different animals | body weight over the course of the study ([2]; po, 10 mg/kg): modest weight gains over the first 10-11 days of the study, followed by weight loss | body weight relative to CIA + vehicle (group 2) ([2]; po, 10 mg/kg): significantly decreased relative to group 2 on days 6-7 and 10-18 (p<0.01), and on days 9 and 19-21 (p<0.05) | weight change, day 21 compared to day 0 ([2]; po, 10 mg/kg): approximately 0.5% | animals that either lost weight or gained no weight ([2]; po, 30 mg/kg): 5/8 | animals that gained weight by the end of the study ([2]; po, 30 mg/kg): 3/8 | animals that had diarrhea over the 21-day period ([2]; po, 30 mg/kg): Four different animals | body weight over the course of the study ([2]; po, 30 mg/kg): modest weight gains over the first 10-11 days of the study, followed by weight loss | body weight relative to CIA + vehicle (group 2) ([2]; po, 30 mg/kg): significantly decreased relative to group 2 on days 6-7 and 9-18 (p<0.01), and on days 5 and 19-21 (p<0.05) | weight change, day 21 compared to day 0 ([2]; po, 30 mg/kg): approximately 0.5% | IC50 ([3]; Test Subject 1, read-out: IL-17A IC50): 20.5 nM | IC50 ([3]; Test Subject 2, read-out: IL-17A IC50): 5.7 nM | IC50 ([3]; Test Subject 3, read-out: IL-17A IC50): 58.5 nM | IC50 ([3]; mean of test subjects, read-out: IL-17A IC50 Mean): 28.2 nM | effectiveness in reducing inflammatory biomarkers IL-17A, IL-22, and CXCL-10 relative to GSK620 ([3]; human PBMC): more effective than GSK620 | IC50 for IL-17A relative to GSK620 ([3]; human PBMC, 72 hours): substantially lower IC50 | Biomarker selectivity (IL-17 vs. CXCL10) ([3]; human PBMC, from mean IC50): >1063 Fold | Average rat anti-collagen IgG1 levels, Mean ([4]; Group 5 (CIA), 3 mg/kg): 7247.32* | Final Rat Anti-Collagen IgG1 Antibody Con. ([4]; Group 5 (CIA), 3 mg/kg): 7202.91 units/ml and 5737.56 units/ml and 596.39 units/ml and 17040.09 units/ml and 6834.32 units/ml and 2359.32 units/ml and 1570.97 units/ml and 16636.97 units/ml | Average rat anti-collagen IgG1 levels, Mean ([4]; Group 6 (CIA), 10 mg/kg): 10839.90 | Final Rat Anti-Collagen IgG1 Antibody Con. ([4]; Group 6 (CIA), 10 mg/kg): 44339.86 units/ml and 9577.48 units/ml and 15070.08 units/ml and 545.06 units/ml and 12072.29 units/ml and 3772.28 units/ml and 782.47 units/ml and 559.69 units/ml | Average rat anti-collagen IgG1 levels, Mean ([4]; Group 7 (CIA), 30 mg/kg): 1447.13** | Final Rat Anti-Collagen IgG1 Antibody Con. ([4]; Group 7 (CIA), 30 mg/kg): 219.33 units/ml and 81.22 units/ml and 1208.05 units/ml and 4311.36 units/ml and 1799.62 units/ml and 548.72 units/ml and 1961.63 units/ml | Rat Anti-Collagen IgG1 Antibody Con. ([4]; Group 5 (CIA), 3 mg/kg): 7.20 units/ml and 5.74 units/ml and 0.60 units/ml and 17.04 units/ml and 6.83 units/ml and 2.36 units/ml and 1.57 units/ml and 16.64 units/ml | Rat Anti-Collagen IgG1 Antibody Con. ([4]; Group 6 (CIA), 10 mg/kg): 44.34 units/ml and 9.58 units/ml and 15.07 units/ml and 0.55 units/ml and 12.07 units/ml and 3.77 units/ml and 0.78 units/ml and 0.56 units/ml | Rat Anti-Collagen IgG1 Antibody Con. ([4]; Group 7 (CIA), 30 mg/kg): 0.22 units/ml and 0.08 units/ml and 1.21 units/ml and 4.31 units/ml and 1.80 units/ml and 0.55 units/ml and 1.96 units/ml | levels of rat anti-collagen IgG1 antibodies relative to CIA induced, no treatment ([4]; 1 mg/kg, 10 mg/kg as printed, p<0.05): significantly decreased levels | levels of rat anti-collagen IgG1 antibodies relative to CIA induced, no treatment ([4]; 30 mg/kg, p<0.01): significantly decreased levels | Plasma concentration ([5]; Day 21, Group 5 (CIA), 3 mg/kg, per animal): 37.5 ng/mL and 59.4 ng/mL and 64.9 ng/mL and 49.5 ng/mL and 65.2 ng/mL and 71.9 ng/mL and 69.6 ng/mL | Plasma concentration ([5]; Day 21, Group 6 (CIA), 10 mg/kg, per animal): 270 ng/mL and 134 ng/mL and 209 ng/mL and 281 ng/mL and 251 ng/mL and 313 ng/mL and 175 ng/mL and 28.4 ng/mL | Plasma concentration ([5]; Day 21, Group 7 (CIA), 30 mg/kg, per animal): 1620 ng/mL and 1260 ng/mL and 1430 ng/mL and 1220 ng/mL and 1350 ng/mL and 2000 ng/mL and 1440 ng/mL | day 20 plasma concentration versus dose ([5]; Lewis rats, oral administration): appeared to increase in a dose-dependent manner | AUClast/D [5, 6]: 528 (ng·h/mL)/(mg/kg) | AUC—% Extrap—obs [5, 6]: 1.11% | time at which plasma levels peaked after the second daily dose ([5]; Lewis rats, oral, second daily dose administered at 8 h): 10 h | concentration at 21 day ([5]; Lewis, rat, plasma, oral, 3 mg/kg, Day 21, Group 5 (CIA), 3 mg/kg, per animal, read-out: Plasma Concentration): 54.9 ng/mL | concentration at 21 day ([5]; Lewis, rat, plasma, oral, 3 mg/kg, Day 21, Group 5 (CIA), 3 mg/kg, read-out: Mean Plasma Concentration): 59.1 ng/mL | concentration at 21 day ([5]; Lewis, rat, plasma, oral, 10 mg/kg, Day 21, Group 6 (CIA), 10 mg/kg, read-out: Mean Plasma Concentration): 208 ng/mL | concentration at 0.5 h [5, 7]: 738 ng/mL | concentration at 1 h [5, 7]: 1090 ng/mL | concentration at 2 h [5, 7]: 1110 ng/mL | concentration at 4 h [5, 7]: 1170 ng/mL | concentration at 8 h [5, 7]: 190 ng/mL | concentration at 10 h [5, 7]: 1880 ng/mL | concentration at 12 h [5, 7]: 772 ng/mL | concentration at 14 h ([5]; Lewis, rat, plasma, oral, 10 mg/kg, oral, day 0, 10 mg/kg, 14 h, per test subject, read-out: Plasma concentration): 324 ng/mL | concentration at 0.25 h [5, 8]: 1260 ng/mL | concentration at 0.5 h [5, 8]: 1660 ng/mL | concentration at 1 h [5, 8]: 1600 ng/mL | concentration at 2 h [5, 8]: 841 ng/mL | concentration at 4 h [5, 8]: 452 ng/mL | concentration at 10 h [5, 8]: 1170 ng/mL | concentration at 12 h [5, 8]: 258 ng/mL | concentration at 0.25 h [5, 9]: 502 ng/mL | concentration at 0.5 h [5, 9]: 706 ng/mL | concentration at 1 h [5, 9]: 1270 ng/mL | concentration at 2 h [5, 9]: 1240 ng/mL | concentration at 4 h [5, 9]: 997 ng/mL | concentration at 8 h [5, 9]: 148 ng/mL | concentration at 10 h [5, 9]: 1930 ng/mL

— US20250263370A1 (Tay Therapeutics Limited, priority 2022, published 2025)
